Experimental data published in PubChem BioAssay AID1918995 (Molecular Pharmacology Branch, DTP, NCI, 2023).

Tested on: 324938-238-R-J1-PDC complex spheroid growth, % test/control
Experiment: Anticancer human tumor 324938-238-R-J1-PDC patient-derived bladder carcinoma cell line growth inhibition [AhR]
Details: for IC50: curve of first compound; for viability, T/C: stronger effect = lower value
Summary of the method: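 Complex tumor spheroids co-cultured with HUVEC and human MSC stroma; AhR antagonists tested in combination with standard-of-care and investigational agents. Top concentration at or near clinical Cmax (else 10 microM), half-log dilutions; growth expressed as percent test/control.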

[1] = second compound 0.1 µM, first compound 0.0316 µM
[2] = second compound 0.1 µM, first compound 0.1 µM
[3] = second compound 0.1 µM, first compound 0.316 µM
[4] = second compound 0.1 µM, first compound 1 µM
[5] = second compound 0.1 µM, first compound 3.16 µM
[6] = second compound 0.1 µM, first compound 10 µM
[7] = second compound 0.316 µM, first compound 0.0316 µM
[8] = second compound 0.316 µM, first compound 0.1 µM
[9] = second compound 0.316 µM, first compound 0.316 µM
[10] = second compound 0.316 µM, first compound 1 µM
[11] = second compound 0.316 µM, first compound 3.16 µM
[12] = second compound 0.316 µM, first compound 10 µM
[13] = second compound 1 µM, first compound 0.0316 µM
[14] = second compound 1 µM, first compound 0.1 µM
[15] = second compound 1 µM, first compound 0.316 µM
[16] = second compound 1 µM, first compound 1 µM
[17] = second compound 1 µM, first compound 3.16 µM
[18] = second compound 1 µM, first compound 10 µM
[19] = second compound 3.16 µM, first compound 0.0316 µM
[20] = second compound 3.16 µM, first compound 0.1 µM
[21] = second compound 3.16 µM, first compound 0.316 µM
[22] = second compound 3.16 µM, first compound 1 µM
[23] = second compound 3.16 µM, first compound 3.16 µM
[24] = second compound 3.16 µM, first compound 10 µM
[25] = second compound 10 µM, first compound 0.0316 µM
[26] = second compound 10 µM, first compound 0.1 µM
[27] = second compound 10 µM, first compound 0.316 µM
[28] = second compound 10 µM, first compound 1 µM
[29] = second compound 10 µM, first compound 3.16 µM
[30] = second compound 10 µM, first compound 10 µM
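Further: spheroids exposed to agents for seven days before viability read.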

SMILES: CC(C)c1c(-c2ccccc2)nc2c(C#N)c[nH]n2c1=O + CC(CO)NC(=O)c1cc(-c2ccc(Cl)cc2)nn(-c2cnn(C)c2)c1=O
- IC50 (second compound 0.1 µM): > 10000 nM
- IC50 (second compound 0.316 µM): > 10000 nM
- IC50 (second compound 1 µM): > 10000 nM
- IC50 (second compound 3.16 µM): > 10000 nM
- IC50 (second compound 10 µM): > 10000 nM
- viability, T/C [1]: 110%
- viability, T/C [2]: 115%
- viability, T/C [3]: 88.1%
- viability, T/C [4]: 87.2%
- viability, T/C [5]: 92.5%
- viability, T/C [6]: 88%
- viability, T/C [7]: 94.7%
- viability, T/C [8]: 98.9%
- viability, T/C [9]: 92.8%
- viability, T/C [10]: 78.8%
- viability, T/C [11]: 88.5%
- viability, T/C [12]: 81.2%
- viability, T/C [13]: 87.5%
- viability, T/C [14]: 88.1%
- viability, T/C [15]: 87.4%
- viability, T/C [16]: 76.5%
- viability, T/C [17]: 89.2%
- viability, T/C [18]: 75.8%
- viability, T/C [19]: 73.4%
- viability, T/C [20]: 76.4%
- viability, T/C [21]: 71%
- viability, T/C [22]: 64.4%
- viability, T/C [23]: 63.4%
- viability, T/C [24]: 60.9%
- viability, T/C [25]: 65.4%
- viability, T/C [26]: 67%
- viability, T/C [27]: 64%
- viability, T/C [28]: 57.9%
- viability, T/C [29]: 54.9%
- viability, T/C [30]: 56.5%

SMILES: CC1COCCN1c1cc(-c2ccnn2C)c2ccnc(-c3ccn[nH]3)c2n1 (stereo not given) + CC(CO)NC(=O)c1cc(-c2ccc(Cl)cc2)nn(-c2cnn(C)c2)c1=O
- IC50 (second compound 0.1 µM): 81.3 nM
- IC50 (second compound 0.316 µM): 65 nM
- IC50 (second compound 1 µM): 67.1 nM
- IC50 (second compound 3.16 µM): 36.7 nM
- IC50 (second compound 10 µM): 22.5 nM
- viability, T/C (second compound 0.1 µM, first compound 0.00316 µM): 97%
- viability, T/C (second compound 0.1 µM, first compound 0.01 µM): 110%
- viability, T/C [1]: 75.2%
- viability, T/C [2]: 44.6%
- viability, T/C [3]: 29.7%
- viability, T/C [4]: 18.6%
- viability, T/C (second compound 0.316 µM, first compound 0.00316 µM): 88.6%
- viability, T/C (second compound 0.316 µM, first compound 0.01 µM): 102%
- viability, T/C [7]: 72.7%
- viability, T/C [8]: 36.6%
- viability, T/C [9]: 26.4%
- viability, T/C [10]: 21.6%
- viability, T/C (second compound 1 µM, first compound 0.00316 µM): 88.7%
- viability, T/C (second compound 1 µM, first compound 0.01 µM): 86.6%
- viability, T/C [13]: 72.8%
- viability, T/C [14]: 37.7%
- viability, T/C [15]: 24.1%
- viability, T/C [16]: 20.4%
- viability, T/C (second compound 3.16 µM, first compound 0.00316 µM): 75.9%
- viability, T/C (second compound 3.16 µM, first compound 0.01 µM): 79%
- viability, T/C [19]: 51%
- viability, T/C [20]: 31.1%
- viability, T/C [21]: 26.7%
- viability, T/C [22]: 18.7%
- viability, T/C (second compound 10 µM, first compound 0.00316 µM): 62.6%
- viability, T/C (second compound 10 µM, first compound 0.01 µM): 63.7%
- viability, T/C [25]: 43.9%
- viability, T/C [26]: 29%
- viability, T/C [27]: 24.8%
- viability, T/C [28]: 20.1%

SMILES: CC1COCCN1c1cc(C2(S(C)(=N)=O)CC2)nc(-c2ccnc3[nH]ccc23)n1 (stereo not given) + CC(CO)NC(=O)c1cc(-c2ccc(Cl)cc2)nn(-c2cnn(C)c2)c1=O
- IC50 (second compound 0.1 µM): 2180 nM
- IC50 (second compound 0.316 µM): 1580 nM
- IC50 (second compound 1 µM): 2110 nM
- IC50 (second compound 3.16 µM): 1760 nM
- IC50 (second compound 10 µM): 916 nM
- viability, T/C [1]: 95.6%
- viability, T/C [2]: 109%
- viability, T/C [3]: 89.6%
- viability, T/C [4]: 69.8%
- viability, T/C [5]: 41.4%
- viability, T/C [6]: 19.8%
- viability, T/C [7]: 103%
- viability, T/C [8]: 97.5%
- viability, T/C [9]: 91.5%
- viability, T/C [10]: 57.2%
- viability, T/C [11]: 37.3%
- viability, T/C [12]: 20.6%
- viability, T/C [13]: 89.4%
- viability, T/C [14]: 95.9%
- viability, T/C [15]: 98.1%
- viability, T/C [16]: 72%
- viability, T/C [17]: 38.6%
- viability, T/C [18]: 22.5%
- viability, T/C [19]: 81.3%
- viability, T/C [20]: 77.9%
- viability, T/C [21]: 76.3%
- viability, T/C [22]: 65.6%
- viability, T/C [23]: 34%
- viability, T/C [24]: 16.7%
- viability, T/C [25]: 70.3%
- viability, T/C [26]: 73.6%
- viability, T/C [27]: 68.8%
- viability, T/C [28]: 47.3%
- viability, T/C [29]: 28.8%
- viability, T/C [30]: 20%

SMILES: COc1ccc([C@@H](O)c2cc(-c3ncnc4cc(N5CCOCC5)ccc34)c(F)cc2Cl)nn1 + CC(CO)NC(=O)c1cc(-c2ccc(Cl)cc2)nn(-c2cnn(C)c2)c1=O
- IC50 (second compound 0.1 µM): > 10000 nM
- IC50 (second compound 0.316 µM): > 10000 nM
- IC50 (second compound 1 µM): > 10000 nM
- IC50 (second compound 3.16 µM): > 10000 nM
- IC50 (second compound 10 µM): > 10000 nM
- viability, T/C [1]: 99.4%
- viability, T/C [2]: 110%
- viability, T/C [3]: 90.2%
- viability, T/C [4]: 81.8%
- viability, T/C [5]: 78.5%
- viability, T/C [6]: 66.5%
- viability, T/C [7]: 89.4%
- viability, T/C [8]: 93.4%
- viability, T/C [9]: 96.8%
- viability, T/C [10]: 76.4%
- viability, T/C [11]: 71.6%
- viability, T/C [12]: 59.5%
- viability, T/C [13]: 88.8%
- viability, T/C [14]: 88.7%
- viability, T/C [15]: 91.6%
- viability, T/C [16]: 70.6%
- viability, T/C [17]: 59.5%
- viability, T/C [18]: 60.1%
- viability, T/C [19]: 75.2%
- viability, T/C [20]: 71.1%
- viability, T/C [21]: 68.3%
- viability, T/C [22]: 60%
- viability, T/C [23]: 63.6%
- viability, T/C [24]: 51.8%
- viability, T/C [25]: 70.7%
- viability, T/C [26]: 65.5%
- viability, T/C [27]: 63.8%
- viability, T/C [28]: 56.1%
- viability, T/C [29]: 55%
- viability, T/C [30]: 55.8%

SMILES: O=C(C=Cn1cnc(-c2cc(C(F)(F)F)cc(C(F)(F)F)c2)n1)NNc1cnccn1 + CC(CO)NC(=O)c1cc(-c2ccc(Cl)cc2)nn(-c2cnn(C)c2)c1=O
- IC50 (second compound 0.1 µM): 123 nM
- IC50 (second compound 0.316 µM): 138 nM
- IC50 (second compound 1 µM): 135 nM
- IC50 (second compound 3.16 µM): 96.2 nM
- IC50 (second compound 10 µM): 125 nM
- viability, T/C (second compound 0.1 µM, first compound 0.00949 µM): 83.2%
- viability, T/C (second compound 0.1 µM, first compound 0.03 µM): 77.4%
- viability, T/C (second compound 0.1 µM, first compound 0.0949 µM): 51.8%
- viability, T/C (second compound 0.1 µM, first compound 0.3 µM): 34.9%
- viability, T/C (second compound 0.1 µM, first compound 0.949 µM): 17.8%
- viability, T/C (second compound 0.1 µM, first compound 3 µM): 11.8%
- viability, T/C (second compound 0.316 µM, first compound 0.00949 µM): 75.7%
- viability, T/C (second compound 0.316 µM, first compound 0.03 µM): 87.5%
- viability, T/C (second compound 0.316 µM, first compound 0.0949 µM): 53.8%
- viability, T/C (second compound 0.316 µM, first compound 0.3 µM): 33.5%
- viability, T/C (second compound 0.316 µM, first compound 0.949 µM): 19.8%
- viability, T/C (second compound 0.316 µM, first compound 3 µM): 12.6%
- viability, T/C (second compound 1 µM, first compound 0.00949 µM): 82.3%
- viability, T/C (second compound 1 µM, first compound 0.03 µM): 76.4%
- viability, T/C (second compound 1 µM, first compound 0.0949 µM): 58%
- viability, T/C (second compound 1 µM, first compound 0.3 µM): 31.1%
- viability, T/C (second compound 1 µM, first compound 0.949 µM): 23.1%
- viability, T/C (second compound 1 µM, first compound 3 µM): 14.2%
- viability, T/C (second compound 3.16 µM, first compound 0.00949 µM): 69.1%
- viability, T/C (second compound 3.16 µM, first compound 0.03 µM): 65%
- viability, T/C (second compound 3.16 µM, first compound 0.0949 µM): 50.7%
- viability, T/C (second compound 3.16 µM, first compound 0.3 µM): 27.2%
- viability, T/C (second compound 3.16 µM, first compound 0.949 µM): 19%
- viability, T/C (second compound 3.16 µM, first compound 3 µM): 12.8%
- viability, T/C (second compound 10 µM, first compound 0.00949 µM): 62%
- viability, T/C (second compound 10 µM, first compound 0.03 µM): 61.8%
- viability, T/C (second compound 10 µM, first compound 0.0949 µM): 57.7%
- viability, T/C (second compound 10 µM, first compound 0.3 µM): 31.3%
- viability, T/C (second compound 10 µM, first compound 0.949 µM): 24.8%
- viability, T/C (second compound 10 µM, first compound 3 µM): 11.4%
